Measured values reported in the NIST ThermoML archive (doi:10.1021/je200350a).
Numbers after ± are expanded uncertainties.

Details: 101.33 kPa, Liquid; for viscosity: Capillary tube (Ostwald / Ubbelohde) method

Structure (SMILES): CCCCBr [1-bromobutane]
- mass density (293.15 K): 1279.1 ± 1.5 kg/m3
- viscosity (293.15 K): 0.6473 ± 0.0064 mPa·s
- mass density (298.15 K): 1272.2 ± 1.4 kg/m3
- viscosity (298.15 K): 0.6096 ± 0.0061 mPa·s
- mass density (303.15 K): 1265.2 ± 1.4 kg/m3
- viscosity (303.15 K): 0.5811 ± 0.0058 mPa·s
- mass density (308.15 K): 1257.2 ± 1.4 kg/m3
- viscosity (308.15 K): 0.55 ± 0.0056 mPa·s

Structure (SMILES): O=[N+]([O-])c1ccccc1 [nitrobenzene]
- mass density (293.15 K): 1202.2 ± 1.2 kg/m3
- viscosity (293.15 K): 1.983 ± 0.018 mPa·s
- mass density (298.15 K): 1197.2 ± 1.2 kg/m3
- viscosity (298.15 K): 1.809 ± 0.016 mPa·s
- mass density (303.15 K): 1191.5 ± 1.2 kg/m3
- viscosity (303.15 K): 1.659 ± 0.015 mPa·s
- mass density (308.15 K): 1186.4 ± 1.2 kg/m3
- viscosity (308.15 K): 1.529 ± 0.014 mPa·s

Structure (SMILES): CC1CCCCC1 [methylcyclohexane]
- mass density (293.15 K): 770.1 ± 1.2 kg/m3
- viscosity (293.15 K): 0.7293 ± 0.0071 mPa·s
- mass density (298.15 K): 766.7 ± 1.2 kg/m3
- viscosity (298.15 K): 0.6827 ± 0.0067 mPa·s
- mass density (303.15 K): 761.8 ± 1.2 kg/m3
- viscosity (303.15 K): 0.6385 ± 0.0063 mPa·s
- mass density (308.15 K): 757.6 ± 1.2 kg/m3
- viscosity (308.15 K): 0.5997 ± 0.006 mPa·s
